# Results from patent US6914045B2, “Glycopeptide antibiotics” (Wyeth Holdings Corporation, priority 2001, dated 2005).
# Columns and labels:
# Experiment in all cases: in vitro antibacterial evaluation, MIC by broth dilution
# Type in all cases: cell-based
# Enterococcus sp. = settings: broth dilution, 18 hours at 35° C.
# In short: (§1)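 MIC, the lowest antibiotic concentration preventing growth, was read across 64-0.06 μg/mL with 5×10^5 CFU/mL inoculum. Method followed NCCLS M7-A2 broth dilution using Mueller-Hinton II; Gram-positive strains covered recent methicillin-, penicillin- and/or vancomycin-resistant clinical isolates.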
# Staphylococcus sp. = settings: broth dilution, 18 hours at 35° C.
# In short: as §1
# Streptococcus sp. = settings: broth dilution, 18 hours at 35° C.
# In short: as §1
# Escherichia coli = settings: 18 hours at 35° C.
smiles,measurement,setting,value
CC(c1ccccc1)C1NC(=O)CNC(=O)C(CO[Si](C)(C)C(C)(C)C)NC(=O)C(C(O)C2CNC(=N)N2C2OC3COC(C)(C)OC3C3OC(C)(C)OC32)NC(=O)C(C(O)C2CNC(=N)N2)NC(=O)C(Cc2ccc(O)cc2)NC1=O (stereo not drawn) [Example 248],MIC Enterococcus avium (GC 4558),Enterococcus sp.,8 µg/mL
same,MIC Enterococcus faecalis (ATCC 29212),Enterococcus sp.,64 µg/mL
same,MIC Enterococcus faecalis (GC 2242),Enterococcus sp.,64 µg/mL
same,MIC Enterococcus faecalis (GC 2691),Enterococcus sp.,32 µg/mL
same,MIC Enterococcus faecalis (GC 3059),Enterococcus sp.,128 µg/mL
same,MIC Enterococcus faecalis (GC 4552),Enterococcus sp.,128 µg/mL
same,MIC Enterococcus faecalis (GC 4553),Enterococcus sp.,16 µg/mL
same,MIC Enterococcus faecalis (GC 4554),Enterococcus sp.,64 µg/mL
same,MIC Enterococcus faecalis (GC 6189),Enterococcus sp.,32 µg/mL
same,MIC Enterococcus faecium (GC 2243),Enterococcus sp.,32 µg/mL
same,MIC Enterococcus faecium (GC 4556),Enterococcus sp.,32 µg/mL
same,MIC Enterococcus faecium (GC 4557),Enterococcus sp.,16 µg/mL
same,MIC Enterococcus faecalis (ATCC 29212),Enterococcus sp.; strain ATCC 29212,64 µg/mL
same,MIC Enterococcus faecalis (GC 2242),Enterococcus sp.; strain GC 2242,64 µg/mL
same,MIC Enterococcus faecium (GC 2243),Enterococcus sp.; strain GC 2243,32 µg/mL
same,MIC Enterococcus faecalis (GC 2691),Enterococcus sp.; strain GC 2691,32 µg/mL
same,MIC Enterococcus faecalis (GC 3059),Enterococcus sp.; strain GC 3059,128 µg/mL
same,MIC Enterococcus faecalis (GC 4552),Enterococcus sp.; strain GC 4552,128 µg/mL
same,MIC Enterococcus faecalis (GC 4553),Enterococcus sp.; strain GC 4553,16 µg/mL
same,MIC Enterococcus faecalis (GC 4554),Enterococcus sp.; strain GC 4554,64 µg/mL
same,MIC Enterococcus faecium (GC 4556),Enterococcus sp.; strain GC 4556,32 µg/mL
same,MIC Enterococcus faecium (GC 4557),Enterococcus sp.; strain GC 4557,16 µg/mL
same,MIC Enterococcus avium (GC 4558),Enterococcus sp.; strain GC 4558,8 µg/mL
same,MIC Enterococcus faecalis (GC 6189),Enterococcus sp.; strain GC 6189,32 µg/mL
same,MIC Coagulase Negative Staphylococcus (GC 4547),Staphylococcus sp.,16 µg/mL
same,MIC Coagulase Negative Staphylococcus (GC 4548),Staphylococcus sp.,32 µg/mL
same,MIC Coagulase Negative Staphylococcus (GC 4549),Staphylococcus sp.,32 µg/mL
same,MIC Coagulase Negative Staphylococcus (GC 4551),Staphylococcus sp.,32 µg/mL
same,MIC Coagulase Negative Staphylococcus (GC 6257),Staphylococcus sp.,16 µg/mL
same,MIC Staphylococcus aureus (ATCC 29213),Staphylococcus sp.,32 µg/mL
same,MIC Staphylococcus aureus (GC 1131),Staphylococcus sp.,32 µg/mL
same,MIC Staphylococcus aureus (GC 3051),Staphylococcus sp.,64 µg/mL
same,MIC Staphylococcus aureus (GC 3053),Staphylococcus sp.,64 µg/mL
same,MIC Staphylococcus aureus (GC 4541),Staphylococcus sp.,32 µg/mL
same,MIC Staphylococcus aureus (GC 4542),Staphylococcus sp.,64 µg/mL
same,MIC Staphylococcus aureus (GC 4544),Staphylococcus sp.,32 µg/mL
same,MIC Staphylococcus aureus (GC 4545),Staphylococcus sp.,32 µg/mL
same,MIC Staphylococcus aureus-SMITH (GC 4543),Staphylococcus sp.,32 µg/mL
same,MIC Staphylococcus haemolyticus (GC 4546),Staphylococcus sp.,16 µg/mL
same,MIC Staphylococcus aureus (ATCC 29213),Staphylococcus sp.; strain ATCC 29213,32 µg/mL
same,MIC Staphylococcus aureus (GC 1131),Staphylococcus sp.; strain GC 1131,32 µg/mL
same,MIC Staphylococcus aureus (GC 3051),Staphylococcus sp.; strain GC 3051,64 µg/mL
same,MIC Staphylococcus aureus (GC 3053),Staphylococcus sp.; strain GC 3053,64 µg/mL
same,MIC Staphylococcus aureus (GC 4541),Staphylococcus sp.; strain GC 4541,32 µg/mL
same,MIC Staphylococcus aureus (GC 4542),Staphylococcus sp.; strain GC 4542,64 µg/mL
same,MIC Staphylococcus aureus-SMITH (GC 4543),Staphylococcus sp.; strain GC 4543,32 µg/mL
same,MIC Staphylococcus aureus (GC 4544),Staphylococcus sp.; strain GC 4544,32 µg/mL
same,MIC Staphylococcus aureus (GC 4545),Staphylococcus sp.; strain GC 4545,32 µg/mL
same,MIC Staphylococcus haemolyticus (GC 4546),Staphylococcus sp.; strain GC 4546,16 µg/mL
same,MIC Coagulase Negative Staphylococcus (GC 4547),Staphylococcus sp.; strain GC 4547,16 µg/mL
same,MIC Coagulase Negative Staphylococcus (GC 4548),Staphylococcus sp.; strain GC 4548,32 µg/mL
same,MIC Coagulase Negative Staphylococcus (GC 4549),Staphylococcus sp.; strain GC 4549,32 µg/mL
same,MIC Coagulase Negative Staphylococcus (GC 4551),Staphylococcus sp.; strain GC 4551,32 µg/mL
same,MIC Coagulase Negative Staphylococcus (GC 6257),Staphylococcus sp.; strain GC 6257,16 µg/mL
same,MIC Streptococcus agalactiae (GC 4564),Streptococcus sp.,64 µg/mL
same,MIC Streptococcus pneumoniae (ATCC 6301),Streptococcus sp.,64 µg/mL
same,MIC Streptococcus pneumoniae (GC 1894),Streptococcus sp.,64 µg/mL
same,MIC Streptococcus pneumoniae (GC 4565),Streptococcus sp.,128 µg/mL
same,MIC Streptococcus pyogenes (GC 4563),Streptococcus sp.,32 µg/mL
same,MIC Streptococcus pneumoniae (ATCC 6301),Streptococcus sp.; strain ATCC 6301,64 µg/mL
same,MIC Streptococcus pneumoniae (GC 1894),Streptococcus sp.; strain GC 1894,64 µg/mL
same,MIC Streptococcus pyogenes (GC 4563),Streptococcus sp.; strain GC 4563,32 µg/mL
same,MIC Streptococcus agalactiae (GC 4564),Streptococcus sp.; strain GC 4564,64 µg/mL
same,MIC Streptococcus pneumoniae (GC 4565),Streptococcus sp.; strain GC 4565,128 µg/mL
same,MIC Escherichia coli (ATCC 25922),Escherichia coli,64 µg/mL
same,MIC Escherichia coli (GC 4559),Escherichia coli,64 µg/mL
same,MIC Escherichia coli (GC 4560),Escherichia coli,8 µg/mL
CCCCCNC(=O)OC1C(CO)OC(OC2C(CO)OC(Oc3ccc(CC4NC(=O)C(C(C)c5ccccc5)NC(=O)CNC(=O)C(CO)NC(=O)C(C(O)C5CNC(=N)N5C5OC(CO)C(O)C(O)C5O)NC(=O)C(C(O)C5CNC(=N)N5)NC4=O)cc3)C(O)C2O)C(O)C1O (stereo not drawn) [Example 251],MIC Enterococcus avium (GC 4558),Enterococcus sp.,>64 µg/mL
same,MIC Enterococcus faecalis (ATCC 29212),Enterococcus sp.,>64 µg/mL
same,MIC Enterococcus faecalis (GC 2242),Enterococcus sp.,>64 µg/mL
same,MIC Enterococcus faecalis (GC 4552),Enterococcus sp.,>64 µg/mL
same,MIC Enterococcus faecalis (GC 4553),Enterococcus sp.,>64 µg/mL
same,MIC Enterococcus faecalis (GC 4554),Enterococcus sp.,>64 µg/mL
same,MIC Enterococcus faecium (GC 2243),Enterococcus sp.,>64 µg/mL
same,MIC Enterococcus faecium (GC 4556),Enterococcus sp.,>64 µg/mL
same,MIC Enterococcus faecium (GC 4557),Enterococcus sp.,64 µg/mL
same,MIC Enterococcus faecalis (ATCC 29212),Enterococcus sp.; strain ATCC 29212,>64 µg/mL
same,MIC Enterococcus faecalis (GC 2242),Enterococcus sp.; strain GC 2242,>64 µg/mL
same,MIC Enterococcus faecium (GC 2243),Enterococcus sp.; strain GC 2243,>64 µg/mL
same,MIC Enterococcus faecalis (GC 4552),Enterococcus sp.; strain GC 4552,>64 µg/mL
same,MIC Enterococcus faecalis (GC 4553),Enterococcus sp.; strain GC 4553,>64 µg/mL
same,MIC Enterococcus faecalis (GC 4554),Enterococcus sp.; strain GC 4554,>64 µg/mL
same,MIC Enterococcus faecium (GC 4556),Enterococcus sp.; strain GC 4556,>64 µg/mL
same,MIC Enterococcus faecium (GC 4557),Enterococcus sp.; strain GC 4557,64 µg/mL
same,MIC Enterococcus avium (GC 4558),Enterococcus sp.; strain GC 4558,>64 µg/mL
same,MIC Coagulase Negative Staphylococcus (GC 4547),Staphylococcus sp.,>64 µg/mL
same,MIC Coagulase Negative Staphylococcus (GC 4548),Staphylococcus sp.,>64 µg/mL
same,MIC Coagulase Negative Staphylococcus (GC 4549),Staphylococcus sp.,>64 µg/mL
same,MIC Coagulase Negative Staphylococcus (GC 4551),Staphylococcus sp.,>64 µg/mL
same,MIC Coagulase Negative Staphylococcus (ID-3941),Staphylococcus sp.,64 µg/mL
same,MIC Staphylococcus aureus (ATCC 29213),Staphylococcus sp.,>64 µg/mL
same,MIC Staphylococcus aureus (GC 1131),Staphylococcus sp.,>64 µg/mL
same,MIC Staphylococcus aureus (GC 4541),Staphylococcus sp.,>64 µg/mL
same,MIC Staphylococcus aureus (GC 4542),Staphylococcus sp.,>64 µg/mL
same,MIC Staphylococcus aureus (GC 4544),Staphylococcus sp.,>64 µg/mL
same,MIC Staphylococcus aureus (GC 4545),Staphylococcus sp.,>64 µg/mL
same,MIC Staphylococcus aureus-SMITH (GC 4543),Staphylococcus sp.,>64 µg/mL
same,MIC Staphylococcus haemolyticus (GC 4546),Staphylococcus sp.,>64 µg/mL
same,MIC Staphylococcus aureus (ATCC 29213),Staphylococcus sp.; strain ATCC 29213,>64 µg/mL
same,MIC Staphylococcus aureus (GC 1131),Staphylococcus sp.; strain GC 1131,>64 µg/mL
same,MIC Staphylococcus aureus (GC 4541),Staphylococcus sp.; strain GC 4541,>64 µg/mL
same,MIC Staphylococcus aureus (GC 4542),Staphylococcus sp.; strain GC 4542,>64 µg/mL
same,MIC Staphylococcus aureus-SMITH (GC 4543),Staphylococcus sp.; strain GC 4543,>64 µg/mL
same,MIC Staphylococcus aureus (GC 4544),Staphylococcus sp.; strain GC 4544,>64 µg/mL
same,MIC Staphylococcus aureus (GC 4545),Staphylococcus sp.; strain GC 4545,>64 µg/mL
same,MIC Staphylococcus haemolyticus (GC 4546),Staphylococcus sp.; strain GC 4546,>64 µg/mL
same,MIC Coagulase Negative Staphylococcus (GC 4547),Staphylococcus sp.; strain GC 4547,>64 µg/mL
same,MIC Coagulase Negative Staphylococcus (GC 4548),Staphylococcus sp.; strain GC 4548,>64 µg/mL
same,MIC Coagulase Negative Staphylococcus (GC 4549),Staphylococcus sp.; strain GC 4549,>64 µg/mL
same,MIC Coagulase Negative Staphylococcus (GC 4551),Staphylococcus sp.; strain GC 4551,>64 µg/mL
same,MIC Coagulase Negative Staphylococcus (ID-3941),Staphylococcus sp.; strain ID-3941,64 µg/mL
same,MIC Streptococcus agalactiae (GC 4564),Streptococcus sp.,>64 µg/mL
same,MIC Streptococcus pneumoniae (GC 4565),Streptococcus sp.,64 µg/mL
same,MIC Streptococcus pyogenes (ID-3187),Streptococcus sp.,64 µg/mL
same,MIC Streptococcus agalactiae (GC 4564),Streptococcus sp.; strain GC 4564,>64 µg/mL
same,MIC Streptococcus pneumoniae (GC 4565),Streptococcus sp.; strain GC 4565,64 µg/mL
same,MIC Streptococcus pyogenes (ID-3187),Streptococcus sp.; strain ID-3187,64 µg/mL
same,MIC Escherichia coli (ATCC 25922),Escherichia coli,>64 µg/mL
same,MIC Escherichia coli (GC 4559),Escherichia coli,>64 µg/mL
same,MIC Escherichia coli (GC 4560),Escherichia coli,4 µg/mL
